≈ marks a conversion by molar mass, not a printed value. Marks after values point to notes of the source that are not given here.

The nature of series [1]: Dissolution test of eye drop formulations in water. The class given is physicochemical. The following applies: formulation AF1, 450 times dilution in water, maximum at about 10 minutes. The protocol:
In order to keep high concentrations of dissolved kinase inhibitors in the aqueous tear fluid the dissolution of the kinase inhibitor must proceed very quickly upon media dilution. The test formulation was above DF3 and the reference formulation was AF1 comprising acrizanib (Table 4 below). A dissolution test was performed by direct adding of a formulation aliquot into defined volume of water under constant stirring speed. The formulation/water ratio (final dilution) selection was based on the quantification limit of the used HPLC method and on the acrizanib solubility. The final dilution of 450 times was selected. At certain time after adding the formulation to water a sample of about 1 ml was taken from a stirring media, filtered through 0.45 µm filter and transferred to an HPLC vial for analysis.

The target in a further series is EGFR (Homo sapiens, UniProt P00533). The following applies: vendor data; cited from earlier work.
Sequence of EGFR (P00533 25-1210, species assumed): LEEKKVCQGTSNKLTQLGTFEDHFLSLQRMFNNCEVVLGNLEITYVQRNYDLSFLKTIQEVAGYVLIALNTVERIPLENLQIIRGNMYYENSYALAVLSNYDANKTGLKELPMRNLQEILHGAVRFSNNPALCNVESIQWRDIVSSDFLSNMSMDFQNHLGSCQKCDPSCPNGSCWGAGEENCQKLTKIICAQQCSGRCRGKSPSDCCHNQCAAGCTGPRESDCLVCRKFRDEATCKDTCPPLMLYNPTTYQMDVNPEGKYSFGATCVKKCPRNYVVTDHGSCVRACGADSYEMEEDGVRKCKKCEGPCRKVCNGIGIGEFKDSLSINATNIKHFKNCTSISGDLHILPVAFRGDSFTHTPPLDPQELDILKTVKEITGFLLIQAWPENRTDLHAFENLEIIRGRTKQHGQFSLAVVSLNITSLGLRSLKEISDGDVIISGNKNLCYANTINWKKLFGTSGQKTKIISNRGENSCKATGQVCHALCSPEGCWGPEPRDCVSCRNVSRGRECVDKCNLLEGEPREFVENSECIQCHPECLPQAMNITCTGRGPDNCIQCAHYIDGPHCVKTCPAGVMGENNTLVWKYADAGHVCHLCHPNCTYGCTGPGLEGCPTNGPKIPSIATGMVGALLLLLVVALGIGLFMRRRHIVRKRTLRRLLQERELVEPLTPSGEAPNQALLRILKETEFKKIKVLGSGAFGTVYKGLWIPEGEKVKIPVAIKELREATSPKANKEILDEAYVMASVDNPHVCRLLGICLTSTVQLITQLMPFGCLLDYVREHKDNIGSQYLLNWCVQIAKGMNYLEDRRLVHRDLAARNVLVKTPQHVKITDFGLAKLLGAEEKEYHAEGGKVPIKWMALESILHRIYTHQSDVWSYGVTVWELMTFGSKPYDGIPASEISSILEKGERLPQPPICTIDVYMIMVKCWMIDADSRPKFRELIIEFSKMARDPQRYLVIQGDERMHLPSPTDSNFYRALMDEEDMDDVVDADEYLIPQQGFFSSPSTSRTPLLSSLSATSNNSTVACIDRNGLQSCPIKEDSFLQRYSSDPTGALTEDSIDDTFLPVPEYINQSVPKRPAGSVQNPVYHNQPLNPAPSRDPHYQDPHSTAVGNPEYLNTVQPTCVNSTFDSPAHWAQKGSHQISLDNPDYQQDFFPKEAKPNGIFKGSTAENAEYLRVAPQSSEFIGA
For series [2], the target named is T1, VEGFR2 (Homo sapiens, UniProt P35968). Briefly: VEGFR2 IC50 values obtained from Selleckchem, Tocris Bioscience and TargetMol. In kind it is biochemical. The following applies: ratio of vendor IC50 values.
T1 sequence (P35968 20-1356, species assumed): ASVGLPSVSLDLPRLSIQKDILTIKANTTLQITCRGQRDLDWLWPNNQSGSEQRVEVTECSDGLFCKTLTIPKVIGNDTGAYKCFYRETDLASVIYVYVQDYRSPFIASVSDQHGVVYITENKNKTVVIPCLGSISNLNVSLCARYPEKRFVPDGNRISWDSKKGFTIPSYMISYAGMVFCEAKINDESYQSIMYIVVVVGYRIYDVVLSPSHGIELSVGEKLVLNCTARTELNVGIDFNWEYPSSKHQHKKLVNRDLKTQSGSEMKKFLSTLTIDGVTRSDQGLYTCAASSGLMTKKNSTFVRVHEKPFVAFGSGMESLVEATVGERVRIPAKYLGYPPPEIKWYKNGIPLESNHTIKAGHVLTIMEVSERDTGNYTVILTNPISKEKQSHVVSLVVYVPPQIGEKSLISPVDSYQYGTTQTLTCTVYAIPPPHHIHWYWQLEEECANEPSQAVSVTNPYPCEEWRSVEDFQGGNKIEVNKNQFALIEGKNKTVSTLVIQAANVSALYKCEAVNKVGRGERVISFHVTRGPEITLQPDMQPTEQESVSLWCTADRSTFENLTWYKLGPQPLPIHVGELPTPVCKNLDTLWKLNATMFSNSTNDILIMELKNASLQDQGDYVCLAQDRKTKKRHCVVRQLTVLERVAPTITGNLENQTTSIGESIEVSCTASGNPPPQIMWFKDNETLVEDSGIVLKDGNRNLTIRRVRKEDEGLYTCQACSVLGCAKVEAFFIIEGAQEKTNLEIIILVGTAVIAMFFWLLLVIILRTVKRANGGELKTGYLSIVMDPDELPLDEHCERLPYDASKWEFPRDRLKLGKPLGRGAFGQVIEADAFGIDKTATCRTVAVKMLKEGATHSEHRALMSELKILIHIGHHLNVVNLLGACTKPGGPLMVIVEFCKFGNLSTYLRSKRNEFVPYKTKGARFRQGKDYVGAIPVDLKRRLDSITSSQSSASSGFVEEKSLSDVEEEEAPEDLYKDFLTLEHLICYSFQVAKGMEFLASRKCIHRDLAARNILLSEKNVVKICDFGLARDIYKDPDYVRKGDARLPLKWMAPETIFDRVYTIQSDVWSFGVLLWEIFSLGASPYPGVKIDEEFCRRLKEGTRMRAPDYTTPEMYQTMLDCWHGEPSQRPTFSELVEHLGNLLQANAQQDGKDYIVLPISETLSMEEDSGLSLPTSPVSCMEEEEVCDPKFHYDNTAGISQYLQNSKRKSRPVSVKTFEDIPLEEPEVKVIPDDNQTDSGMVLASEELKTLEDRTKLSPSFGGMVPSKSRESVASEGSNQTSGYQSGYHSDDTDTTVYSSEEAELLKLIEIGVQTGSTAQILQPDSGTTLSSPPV
Series [3] concerns the target VEGFR2 (C-terminal fragment, amino acids D807-V1356) (Homo sapiens, UniProt P35968).
For series [4] the following is noted: 7 days.
The target of series [5] is T2, EGFR (C-terminal fragment, amino acids H672-A1210) (Homo sapiens, UniProt P00533).
T2 construct: EGFR (C-terminal fragment, amino acids H672-A1210); purchased Proqinase (Freiburg Germany)
T2 sequence (P00533 672-1210): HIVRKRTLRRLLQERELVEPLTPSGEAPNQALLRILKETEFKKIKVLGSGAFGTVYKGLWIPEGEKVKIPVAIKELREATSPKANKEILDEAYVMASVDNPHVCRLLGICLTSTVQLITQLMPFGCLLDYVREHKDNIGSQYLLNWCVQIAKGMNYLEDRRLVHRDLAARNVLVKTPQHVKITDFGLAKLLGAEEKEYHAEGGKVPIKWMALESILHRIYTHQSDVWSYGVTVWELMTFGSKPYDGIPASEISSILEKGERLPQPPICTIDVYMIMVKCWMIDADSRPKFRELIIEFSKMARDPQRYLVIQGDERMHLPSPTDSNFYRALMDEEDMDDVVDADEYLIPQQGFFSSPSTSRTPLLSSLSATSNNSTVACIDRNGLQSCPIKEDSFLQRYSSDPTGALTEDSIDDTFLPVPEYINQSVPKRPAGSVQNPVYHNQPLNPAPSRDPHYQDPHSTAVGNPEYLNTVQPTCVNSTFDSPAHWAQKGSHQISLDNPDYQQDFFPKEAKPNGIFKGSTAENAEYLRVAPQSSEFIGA
Briefly: PamChip tyrosine kinase peptide array assay, recombinant EGFR. The class given is biochemical.

Series [6] concerns VEGFR2. As to the kind of experiment: PamChip kinase activity profiling in retina tissue lysates. Also on record: VEGFR2 inhibition, Retina: dose or concentration left out as unconfirmed. The conditions noted are these: rabbit retina lysate.
Series [7] has as its system VEGFR2. As to the kind of experiment: PamChip kinase activity profiling in cornea tissue lysates. Also on record: VEGFR2 inhibition, Cornea: dose or concentration left out as unconfirmed. The following applies: rabbit cornea lysate.
Series [8] is described as follows: Solid and dissolved drug fraction and particle size of eye drop microsuspensions. The class given is physicochemical.
The nature of series [9]: Experimental aqueous solubility. The class given is physicochemical. An excerpt: Further improvement of the complexation efficacy is obtained by addition of EDTA and polymers like tyloxapol.
Series [10] deals with T1, VEGFR2. The conditions noted are these: vendor data; cited from earlier work.
For series [11] the following is noted: cited from earlier work.
Series [12] is described as follows: Phase solubility screening of orantinib with gamma-cyclodextrin at pH 6. In kind it is physicochemical. The following applies: 22.5 °C, thermodynamic from solid. The method, then: Phase solubility screening with gamma-cyclodextrin at pH 6. […] The suspensions formed were autoclaved for 15 minutes at 121° C.
Series [13] is described as follows: Stability of orantinib in an autoclave. The class given is physicochemical. An excerpt: Each vial was then split up into 2 vials. One vial of each set was autoclaved and all samples analyzed by HPLC.
The conditions of series [14]: cited from earlier work; for solubility in pure water: 25° C.
Series [15] is described as follows: Solubility of axitinib free base with various acids and γ-cyclodextrin.
The mark [16] stands for this setting: γ-cyclodextrin eye drop formulations.

Sequence of VEGFR2 (C-terminal fragment, amino acids D807-V1356) (P35968 807-1356): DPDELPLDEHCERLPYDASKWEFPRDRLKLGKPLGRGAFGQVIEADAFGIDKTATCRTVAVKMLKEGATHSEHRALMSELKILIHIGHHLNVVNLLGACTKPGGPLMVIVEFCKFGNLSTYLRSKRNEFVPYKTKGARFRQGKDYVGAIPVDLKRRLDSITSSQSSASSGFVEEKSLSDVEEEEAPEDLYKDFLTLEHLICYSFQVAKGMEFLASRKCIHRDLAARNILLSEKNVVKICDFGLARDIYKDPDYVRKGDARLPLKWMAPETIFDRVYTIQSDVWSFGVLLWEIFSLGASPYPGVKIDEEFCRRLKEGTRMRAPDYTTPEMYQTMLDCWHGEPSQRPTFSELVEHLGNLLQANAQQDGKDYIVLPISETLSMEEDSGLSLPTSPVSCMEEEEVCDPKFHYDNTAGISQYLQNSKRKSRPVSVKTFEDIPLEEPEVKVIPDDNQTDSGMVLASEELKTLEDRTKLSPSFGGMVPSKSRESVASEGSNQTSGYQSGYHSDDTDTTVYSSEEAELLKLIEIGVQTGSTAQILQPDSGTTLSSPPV

A word on the IC50: it is the concentration that inhibits the measured activity by half. On to `CNCc1cc(Oc2ccc3c(ccn3C(=O)Nc3cc(C(F)(F)F)n(C)n3)c2)ncn1` [Acrizanib], for which the “fraction of drug dissolved, maximum” value in series [1] was “about 7.5%”. For the same compound, on EGFR, the IC50 was 1 µM.

In the case of `O=C(Nc1cc(Oc2cc(F)c(NC(=O)C3(C(=O)Nc4ccc(F)cc4)CC3)cc2F)ccn1)C1CC1` [Altiratinib], at EGFR, the IC50 is 3.3 µM.

For the compound `COc1cc2c(Oc3ccc4[nH]c(C)cc4c3F)ccnc2cc1OCC1(N)CC1` [Anlotinib], the IC50 on EGFR was 2 µM. Moreover, the EGFR/VEGFR2 ratio on VEGFR2 [2] was 10,000.

For the compound `CNC(=O)c1ccccc1Sc1ccc2c(/C=C/c3ccccn3)n[nH]c2c1` [Axitinib], the “VEGFR inhibition in the recombinant assays” value in [3] was “potent inhibitors for VEGFR”. Further, the “CE (complexation efficacy)” value in series [4] is listed as 0.0002.

With `O=C(Nc1cccc(C(F)(F)F)c1)c1cccc2cc(Oc3cc(CO)ncn3)ccc12` [BFH772], on EGFR, the IC50 was 10 µM. For the same compound, the EGFR/VEGFR2 ratio at VEGFR2 [2] amounted to 3333.

On to `COc1cc2nccc(Oc3ccc(NC(=O)C4(C(=O)Nc5ccc(F)cc5)CC4)cc3)c2cc1OC` [Cabozantinib], for which the “EGFR inhibition in the recombinant assays” value in [5] is on record as “do not inhibit EGFR”. The “VEGFR2 inhibition, Retina” value in the series with VEGFR2 [6] worked out at 74.82%. In addition, the “VEGFR2 inhibition, Cornea” value in the series with VEGFR2 [7] amounted to 90.52%.

Regarding `COc1cc2c(Oc3ccc4[nH]c(C)cc4c3F)ncnc2cc1OCCCN1CCCC1` [Cediranib], in [8] (setting [16]), the “diameter of dissolved drug/γ-cyclodextrin complex nanoparticles” value is reported as “below 200 nm”; the “diameter of solid drug/γ-cyclodextrin complex microparticles” value is given as “less than 10 µm”; the “fraction of drug dissolved (free drug, complexes or complex nanoparticles)” value was “about 13%”. Further, the “fraction of drug in solid drug/γ-cyclodextrin complex microparticles” value in series [8] (γ-cyclodextrin eye drop formulations, from concentration before and after filtration) was “About 87%”. The “CE (complexation efficacy)” value in series [4] is recorded as 0.0578.

As to `CC(O)C(=O)O.CC(O)C(=O)O.CN1CCN(c2ccc3nc(-c4c(N)c5c(F)cccc5[nH]c4=O)[nH]c3c2)CC1` [Dovitinib dilactate], the “increase of drug that could be dissolved and suspended” value in [8] (lactate salt with EDTA and surface active polymers, versus free base) is listed as ~10 fold. Besides, the S in water in [9] (pH 6.5) is listed as 0.3 ^b mg/mL.

Consider `CNC(=O)c1c(C)oc2cc(Oc3ncnc4cc(OC)c(OC)cc34)ccc12` [Fruquintinib], for which, at EGFR, the IC50 was 30 µM. On VEGFR2 [2], the EGFR/VEGFR2 ratio came out at 857.

As to `COc1cc2nccc(Oc3ccc(NC(=O)Nc4ccc(F)cc4F)c(F)c3)c2cc1OC` [Ki8751], the results for the IC50 at EGFR and at VEGFR2 [10] were 10 µM and 0.004 µM, respectively. Moreover, on VEGFR2 [2], the EGFR/VEGFR2 ratio is recorded as 2500.

With `O=C(O)CC(O)C(=O)O` (centres unmarked) [Malic], in [11], the “pKa (first or only value)” value is reported as 3.51 and the “pKa (second value)” value is recorded as 5.03.

As to `CC1(C)CNc2cc(NC(=O)c3cccnc3NCc3ccncc3)ccc21` [Motesanib], the “CE (complexation efficacy)” value in [4] is listed as 0.0052.

Turning to `COC(=O)c1ccc2c(c1)NC(=O)/C2=C(\Nc1ccc(N(C)C(=O)CN2CCN(C)CC2)cc1)c1ccccc1` [Nintedanib], in the series with VEGFR2 [6], the “VEGFR2 inhibition, Retina” value was determined as 94.33% and the “VEGFR2 potency ranking in retina” value is reported as “most potent VEGFR2 inhibitor”. In the series on VEGFR2 [7], the “VEGFR2 inhibition, Cornea” value is 95.92% and the “VEGFR2 potency ranking in cornea” value is reported as “most potent VEGFR2 inhibitor”.

For the compound `O=C(Nc1ccc(OC(F)(F)F)cc1)c1sccc1NCc1ccnc2ccccc12` [OSI-930], at EGFR, the IC50 is 10 µM. Further, the EGFR/VEGFR2 ratio on VEGFR2 [2] is recorded as 1000.

The solubility is how much of the substance goes into solution per volume. With `Cc1[nH]c(/C=C2\C(=O)Nc3ccccc32)c(C)c1CCC(=O)O` [Orantinib], the solubility at 4 h came to 4 µg/mL (≈ 12.9 µM) in series [12] (water with 0 % (w/v) γ-cyclodextrin, water, 0 % (w/v) γCD, pH 6.3); 14 µg/mL (≈ 45.1 µM) in series [12] (water with 5 % (w/v) γ-cyclodextrin, aqueous with cosolvent or surfactant or cyclodextrin, 5 % (w/v) γCD, pH 6.1); 17 µg/mL (≈ 54.8 µM) in series [12] (water with 10 % (w/v) γ-cyclodextrin, aqueous with cosolvent or surfactant or cyclodextrin, 10 % (w/v) γCD, pH 6.2); 12 µg/mL (≈ 38.7 µM) in [12] (water with 15 % (w/v) γ-cyclodextrin, aqueous with cosolvent or surfactant or cyclodextrin, 15 % (w/v) γCD, pH 6.0). In addition, the concentration before autoclave is reported as 60 µq/ml in series [13] (sample 1-29, MQ water with NaOH, pH 7.4, filtered 0.45 micrometer); 182 µq/ml in series [13] (sample 2-29, MQ water with NaOH, pH 7.6, filtered 0.45 micrometer); 321 µq/ml in series [13] (sample 3-29, MQ water with NaOH, pH 7.8, filtered 0.45 micrometer). In addition, the concentration after autoclave in series [13] (sample 1-29, pH 7.4) was determined as 64 µg/mL; in [13] (sample 2-29, pH 7.6) it was 176 µg/mL; in [13] (sample 3-29, pH 7.8), 316 µg/mL.

Regarding `Cc1ccc(Nc2nccc(N(C)c3ccc4c(C)n(C)nc4c3)n2)cc1S(N)(=O)=O` [Pazopanib], the “CE (complexation efficacy)” value in series [4] is 0.00002.

Regarding `CNC(=O)c1cc(Oc2ccc(NC(=O)Nc3ccc(Cl)c(C(F)(F)F)c3)c(F)c2)ccn1` [Regorafenib], in [4], the “CE (complexation efficacy)” value is given as 0.00002. Further, on EGFR, the 50% inhibitory concentration (IC50) was 1 µM.

`COCCNCc1ccc(-c2cc3nccc(Oc4ccc(NC(=O)C5(C(=O)Nc6ccc(F)cc6)CC5)cc4F)c3s2)nc1` [Sitravatinib]: the IC50 on EGFR is 5 µM.

As for `Cc1cc(F)c(Nc2ncnc3cc(OCc4ccccc4)ccc23)cc1O` [ZM 323881, 5-((7-Benzyloxyquinazolin-4-yl)amino)-4-fluoro-2-methylphenol], the IC50 at EGFR is 50 µM. The EGFR/VEGFR2 ratio on VEGFR2 [2] is 25,000.

In the case of `OC[C@H]1O[C@@H]2O[C@H]3[C@H](O)[C@@H](O)[C@@H](O[C@H]4[C@H](O)[C@@H](O)[C@@H](O[C@H]5[C@H](O)[C@@H](O)[C@@H](O[C@H]6[C@H](O)[C@@H](O)[C@@H](O[C@H]7[C@H](O)[C@@H](O)[C@@H](O[C@H]1[C@H](O)[C@H]2O)O[C@@H]7CO)O[C@@H]6CO)O[C@@H]5CO)O[C@@H]4CO)O[C@@H]3CO` [α-cyclodextrin], the “solubility in pure water” value in series [14] was 129500 ± 700 µg/mL (≈ 133000 µM).

On to `OC[C@H]1O[C@@H]2O[C@H]3[C@H](O)[C@@H](O)[C@@H](O[C@H]4[C@H](O)[C@@H](O)[C@@H](O[C@H]5[C@H](O)[C@@H](O)[C@@H](O[C@H]6[C@H](O)[C@@H](O)[C@@H](O[C@H]7[C@H](O)[C@@H](O)[C@@H](O[C@H]8[C@H](O)[C@@H](O)[C@@H](O[C@H]9[C@H](O)[C@@H](O)[C@@H](O[C@H]1[C@H](O)[C@H]2O)O[C@@H]9CO)O[C@@H]8CO)O[C@@H]7CO)O[C@@H]6CO)O[C@@H]5CO)O[C@@H]4CO)O[C@@H]3CO` [γ-cyclodextrin], for which the γCD in solution in series [15] (10 mg/ml Axi + 50 mg/ml γCD + Acetic acid (1:1 molar), pH 3.5) was 24 mg/mL; in [15] (10 mg/ml Axi + 50 mg/ml γCD + Ascorbic acid (1:1 molar), pH 3.1), 27 mg/mL; in series [15] (10 mg/ml Axi + 50 mg/ml γCD + Hydrochloric acid (1:1 molar), pH 3.2) it was 21 mg/mL; in series [15] (10 mg/ml Axi + 50 mg/ml γCD + Lactic acid (1:1 molar), pH 2.8) it was 24 mg/mL; in series [15] (10 mg/ml Axi + 50 mg/ml γCD + Maleic acid (1:1 molar), pH 2.3) it was 25 mg/mL; in [15] (10 mg/ml Axi + 50 mg/ml γCD + Malic acid (1:1 molar), pH 3.0), 24 mg/mL. Also, the γCD in solution was 22 mg/mL in series [15] (10 mg/ml Axi + 50 mg/ml γCD + Tartaric acid (1:1 molar), pH 2.7) and 22 mg/mL in [15] (10 mg/ml Axi + 50 mg/ml γCD, no acid, pH 9.1). In addition, the “solubility in pure water” value in series [14] was 249200 ± 200 µg/mL (≈ 192000 µM). Besides, the “solubility in aqueous 3% (w/v) γ-cyclodextrin suspension saturated with hydrocortisone” value in series [14] was 13000 µg/mL. Moreover, in [14], the “solubility in pure water at room temperature” value was “about 250 mg/ml”.

With Cediranib maleate, the “solubility compared with the free base” value in [9] is recorded as “significant greater solubility than the free base”.

The record behind these values is patent US20230263907A1, “PREPARATION OF SOLID CYCLODEXTRIN COMPLEXES FOR OPHTHALMIC ACTIVE PHARMACEUTICAL INGREDIENT DELIVERY” (OCULIS SA, priority 2020, published 2023).
